Experimental data published in patent publication US12642806B2, “Cannabidiol compositions for use in treating heart conditions” (CARDIOL THERAPEUTICS INC., priority 2019, dated 2026).

Assays:
[1] = molecular target: T1, CB2 receptor (Homo sapiens, UniProt P34972); conditions: literature (Proc Natl Acad Sci USA 2008); cited from earlier work
[2] = molecular target: T1, CB2 receptor; conditions: literature (Proc Natl Acad Sci USA 2008); cited from earlier work; remark: listed apart in the source
[3] = taken orally; background statement; cited from earlier work
[4] = test system: H9c2 cells; assay: Angiotensin II-mediated cardiomyocyte hypertrophy in H9c2 cells, cell surface area (calcein, confocal microscopy); type: cell-based; conditions: compared with Ang group
Protocol: A study was conducted to determine the effect of CBD in a model of cardiomyocyte hypertrophy, using H9c2 cells, a cardiomyocyte cell line, in vitro. In this study, H9c2 cells grown in a culture medium were divided into four groups. To one group nothing was added (“Control”). To the second, third and fourth groups, Angiotensin II was added to the culture medium (“Ang”) to give a final concentration of 1.0 μM. The Angiotensin II was added to induce hypertrophy. To the third group, CBD was also added to give a concentration of 0.1 μM (“Ang+CBD 0.1 μM”). Finally, to the fourth group, CBD was also added to give a concentration of 1 μM (“Ang+CBD 1 μM”).
FIG. 1 contains representative confocal microscopy images of the H9c2 cells in each group. The images were obtained using a model with the same parameters and cell staining, to determine the surface area per cell, was achieved using calcein fluorescent dye. […] The results are summarized in FIG. 2, wherein each group comprises at least 3 independent replicates per group.

[5] = test system: mouse model of non-ischemic heart failure (HF); assay: Mouse model of non-ischemic heart failure (L-NAME/NaCl + Angiotensin II); type: in vivo, C57BL/6 laboratory mice; conditions: for cardiac fibrosis (Masson's Trichrome) / myocyte area (hypertrophy): 4 weeks, vs Angiotensin group; for mRNA expression of BNP in heart tissue (qPCR): compared with ANG group
Protocol: Tests were done to evaluate the potential for CBD in treating or preventing heart failure in a mouse model of non-ischemic heart failure (HF) illustrated in FIG. 5.
Three to four week old male C57BL/6 laboratory mice were used in the experiments. The mice were divided into four groups. A first group (the Control) received nothing. The second group of mice (Angiotensin) was provided with water containing 0.1 mg/ml of N(gamma)-nitro-L-arginine methyl ester (L-NAME) and 1% sodium chloride (NaCl) ad libitum for one week. Following this, 0.7 mg/kg/week of Angiotensin II was administered subcutaneously for 4 weeks using osmotic pumps. The third group and fourth group were subjected to the same protocol as the second group, however, the third group (ANG+CBD 1 mg/kg) and fourth group (ANG+CBD 10 mg/kg) also received synthetic CBD subcutaneously in an amount of 1 mg/kg and 10 mg/kg, respectively, once every 3 days during the same four week period. The CBD compositions used in this experiment consisted of CBD dissolved in PEG400.
After four weeks of treatment, cardiac tissue was evaluated for fibrosis and myocyte hypertrophy and changes in remodeling and inflammation biomarkers.

[6] = test system: H9c2 cells; assay: Repeated H9c2 hypertrophy study: BNP and collagen mRNA, mitochondrial ROS (MitoSOX); type: cell-based
Protocol: The study was repeated using H9c2 cells grown in a culture medium divided into seven groups. To one group nothing was added (“CTRL”). To the second, fourth, fifth, sixth, and seventh groups, Angiotensin II was added to the culture medium (“ANG”) to give a final concentration of 1.0 μM. The Angiotensin II was added to induce hypertrophy. To the third group, CBD was added to give a concentration of 0.1 μM (“CBD 0.1 μM”) as an additional control group. CBD was also added to (a) the fourth group to give a concentration of 0.001 μM (“ANG+CBD 0.001 μM”), (b) the fifth group to give a concentration of 0.01 μM (“ANG+CBD 0.01 μM”), (c) the sixth group to give a concentration of 0.1 μM (“ANG+CBD 0.1 μM”), and, finally, (d) the seventh group to give a concentration of 1 μM (“ANG+CBD 1 μM”).

[7] = test system: human monocytes; assay: CD69 expression by ionomycin/PMA-activated human monocytes (flow cytometry); type: cell-based; conditions: CBD 5 μg/mL or greater, added 15 minutes before 4 hours stimulation with ionomycin 1 μg/ml and PMA 50 ng/ml
Protocol: (§1) A further study was performed to determine the effect of CBD on the expression of CD69 (a marker of leukocyte activation) by human lymphocytes and monocytes that had been activated by ionomycin (1 μg/mL) and phorbol myristate acetate (PMA, 50 ng/mL) in vitro.
(§2) Mononuclear cells from a healthy human donor were isolated using a gradient method with Ficoll-Pacque™ Healthcare. Cells were washed with RPMI media with 10% FCS and 1% Penn/Strept and then placed in 12 well trays at 1×10^6 cells/mL and stimulated for 4 hours with Ionomycin 1 μg/ml and 50 ng/ml PMA. CBD was added 15 minutes before using DMSO as a vehicle. After the stimulation, cells were washed again and resuspended in 150 μL staining buffer (PBS+1% BSA). An optimized protocol for surface marker staining was used. CD69 was added to the cells, which were then incubated for 15 minutes in the dark at room temperature. After this, cells were washed twice with PBS+1% BSA and resuspended in 150 μL buffer. Cells were kept at 4 degrees prior to being analyzed in a FACSCanto™ II cytometer. Cell populations were determined by FSC/SSC. The number of events were at least 2000 events per gate. […] The data was analyzed with FlowJo X. Doublets were discriminated with an exclusion gate of FSC-A/FSC-W. Gating for lymphocytes and monocytes was determined by FSC-A/SSC-A. The frequency and expression of CD69-FITC was analyzed in its FITC channel.

[8] = test system: human lymphocytes; assay: CD69 expression by ionomycin/PMA-activated human lymphocytes (flow cytometry); type: cell-based; conditions: CBD 5 μg/mL or greater, added 15 minutes before 4 hours stimulation with ionomycin 1 μg/ml and PMA 50 ng/ml
Protocol: as §1, §2

[9] = CBD 1 mg/kg body weight subcutaneously
[10] = CBD 1 mg/kg subcutaneously once every 3 days
[11] = CBD 10 mg/kg subcutaneously once every 3 days
[12] = ANG+CBD 1 μM compared to ANG group
[13] = Angiotensin II 1.0 μM + CBD 0.001, 0.01, 0.1, 1 μM

T1 sequence (P34972 whole entry): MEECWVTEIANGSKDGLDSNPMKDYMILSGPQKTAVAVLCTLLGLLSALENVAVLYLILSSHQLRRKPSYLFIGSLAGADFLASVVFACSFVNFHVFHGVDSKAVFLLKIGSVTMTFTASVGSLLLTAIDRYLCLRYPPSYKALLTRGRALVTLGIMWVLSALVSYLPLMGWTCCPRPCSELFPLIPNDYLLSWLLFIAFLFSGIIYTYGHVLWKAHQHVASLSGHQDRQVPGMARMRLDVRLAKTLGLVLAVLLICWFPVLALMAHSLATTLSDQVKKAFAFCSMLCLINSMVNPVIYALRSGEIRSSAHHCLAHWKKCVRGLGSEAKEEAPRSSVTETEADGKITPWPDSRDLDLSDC

## C=C1CC/C=C(\C)CC[C@@H]2[C@@H]1CC2(C)C [β-caryophyllene, trans-(1R,9S)-8-Methylene-4,11,11-trimethylbicyclo[7.2.0]undec-4-ene]
[1]
  binding to the CB2 receptor: selectively binds to the CB2 receptor
[2]
  functional activity at CB2: functional CB2 agonist

## C=C(C)[C@@H]1CCC(C)=C[C@H]1c1c(O)cc(CCCCC)cc1O [CBD, cannabidiol]
[3]
  overall bioavailability: less than 10%
[4]; Angiotensin II 1.0 μM + CBD 0.1 μM
  cell surface area of H9c2 cells: significantly smaller
[4]; Angiotensin II 1.0 μM + CBD 1 μM
  cell surface area of H9c2 cells: significantly smaller
[5]; [9]
  mRNA expression of IL10: significantly increased
  mRNA expression of pro-inflammatory cytokine IL6: significantly decreased
[5]; [10]
  cardiac fibrosis (Masson's Trichrome): effective to reduce
  myocyte area (hypertrophy): effective to reduce
[5]; CBD 1 mg/kg subcutaneously
  mRNA expression of BNP in heart tissue (qPCR): significant reduction
[5]; CBD 10 mg/kg body weight subcutaneously
  mRNA expression of pro-inflammatory cytokine IL6: significantly decreased
[5]; [11]
  cardiac fibrosis (Masson's Trichrome): effective to reduce
  myocyte area (hypertrophy): effective to reduce
[5]; CBD 10 mg/kg subcutaneously
  mRNA expression of BNP in heart tissue (qPCR): significant reduction
[5]; CBD subcutaneously, dose not given
  mRNA expression of pro-inflammatory cytokine IL1β: trend to be reduced to control levels
[6]; ANG+CBD 0.1 μM compared to ANG group
  mRNA level of expression of collagen: significantly reduced
[6]; [12]
  mRNA level of expression of BNP: significantly reduced
  mRNA level of expression of collagen: significantly reduced
[6]; [13]
  mRNA level of expression of BNP: dose-dependent reduction
  mRNA level of expression of collagen: dose-dependent reduction
[6]; Angiotensin II 1.0 μM + CBD at different doses
  Mitochondrial reactive oxygen species (ROS, MitoSOX): reduced down to control levels
[7]
  level of expression of CD69 by monocytes: reduced the level of expression of CD69
[8]
  level of expression of CD69 by lymphocytes: reduced the level of expression of CD69
